Consider four molecules from patent US9623008B2, “Targeting abnormal DNA repair in therapy-resistant breast and pancreatic cancers” (STC.UNM, priority 2012, dated 2017).

“Also recorded” adds a separate entry of the source. Read-outs that look alike come from different tables or passages of the source.

Holding throughout (format): cell-based
Assay [1] deals with MCF7 cells following siRNA knockdown of Ku70. In words: Colony survival assay, MCF7 after siRNA knockdown of Ku70. The following applies: Ku70 knockdown versus siRNA control, 1 μmol/L, 10-day growth. On the procedure:
(§1) Cells were seeded at a density of 1,000 cells per well in methylcellulose-based medium in the presence of DNA ligase I/III inhibitor, L67 (0.5 μmol/L; ref. 10); PARP inhibitor, ABT888 (0.125 μmol/L); or L67 (0.5 μmol/L) and ABT888 (0.125 μmol/L) for approximately 10 days. Colonies were stained with 2-(4-iodophenyl)-3-(4-nitrophenyl)-5-phenlytetrazolium chloride (1 mg/mL) for 16 to 24 hours before evaluation. Vital colonies were counted with an automated image analysis system (Omincon FAS IV, BIOSYS GmbH). Experiments were conducted at least 3 times, and results are representative of the mean of 3 independent experiment ±SEM.
Target plus SMART pool siRNA oligonucleotides for G22P1, DNA ligase III, and Ku70 mRNAs were purchased from Dharmacon RNA Technologies. The oligonucleotides were transiently transfected into cells with Amaxa Nucleofector Kit V (VCA-1003) in Nucleofector II Amaxa Biosystems. For transfection, […] of 20 μmol/L siRNA was used per 2×10^6 cells. […] Cells were harvested for Western blotting 72 hours after transfection. siRNA nontargeting pool (Dharmacon RNA Technologies) was used as a control.

Assay [2] has as its system tumorigenic cell lines (MCF7, TAM1, TAM2, TAM3, LTLT). As to the kind of experiment: Colony survival assay, MCF7 and therapy-resistant derivatives. Conditions: L67 0.5 μmol/L or ABT888 0.125 μmol/L alone, 10-day growth, compared with MCF10A. On the procedure:
as §1

In assay [3] the test system is MCF10A. In words: MTT cell proliferation assay, MCF10A. Conditions: single agents, 72 hours, read-out: IC50, growth. On the procedure:
(§2) Cells were grown in 96-well plates with DNA ligase I/III inhibitor L67 (up to 60 μmol/L) and/or the PARP inhibitor ABT888 (up to 80 μmol/L) for 72 hours. Approximately 20 hours prior to evaluation, MTT labeling reagent (MTT in PBS; Roche) was added to each well. After incubating for 4 hours with the MTT labeling reagent, solubilization solution (10% SDS in 0.01 mol/L HCl; Roche) was added to solubilize the formazan salt crystals. The results were spectrophotometrically quantified by a VersaMax Microplate Reader at a wavelength of 550 nm and a reference wavelength of 650 nm. The effect of combining the DNA repair inhibitors was analyzed by determining the combination index (CI) described by Chou and Talalay (18, 19) with Calcusyn software (version 2.0; Biosoft). This calculation takes into account of both potency (median dose, Dm or IC50) and the shape of the dose-effect curve (the m value) to calculate the CI. L67 and ABT888 were combined at fixed ratios of doses that corresponded to 0.0001, 0.001, 0.005, 0.01, 0.05, 0.1, 0.5, 1, and 10 times the individual IC50 values. Synergy, additivity, and antagonism are defined as CI<1, CI ¼ 1, and CI>1, respectively.

The subject of assay [4] is breast cancer cell lines. As to the kind of experiment: MTT cell proliferation assay, breast cancer cell lines. The following applies: single agents, all the breast cancer cell lines, 72 hours; read-out: IC50, growth and viability. On the procedure: as §2

As for `CC/C(=C(\c1ccccc1)c1ccc(OCCN(C)C)cc1)c1ccccc1` [tamoxifen], in assay [1], the “sensitivity (colony survival)” value is recorded as “decreased sensitivity”.
Take `N#Cc1ccc(C(c2ccc(C#N)cc2)n2cncn2)cc1` [letrozole]: the “sensitivity (colony survival)” value in assay [1] was “decreased sensitivity”.
Usually IC50 stands for the midpoint of a concentration-inhibition curve. As for `Cc1c(Br)cc(NCC(=O)NN=Cc2cc([N+](=O)[O-])ccc2O)cc1Br` [L67], the “colony survival, inhibitor alone” value in assay [2] is reported as “small reductions; also recorded: little effect”. In addition, the IC50 in assay [3] and in assay [4] was roughly 6 µM throughout.
Regarding `C[C@]1(c2nc3c(C(N)=O)cccc3[nH]2)CCCN1` [ABT888, Veliparib], the “colony survival, inhibitor alone” value in assay [2] is “small reductions”. For the same molecule, the IC50 was roughly 10 µM in assay [3] (Homo sapiens, MCF-10A) and roughly 8 µM in assay [4].
